Measurements reported in patent US9717699B2, “Sterilized compositions of cyanoacrylate monomers and naphthoquinone 2,3-oxides” (Adhezion Biomedical, LLC, priority 2014, dated 2017).

Experiment: Miscibility/solubility of additive in cyanoacrylate monomer
Format: physicochemical
Conditions: activated 2-octyl cyanoacrylate composition, room temperature

| Structure (SMILES) | Miscibility with 2-octyl cyanoacrylate | Miscibility with 2-octyl cyanoacrylate (listed as Phylloquinone oxide) |
| --- | --- | --- |
| CC(=O)Oc1cc(C)c(OC(C)=O)c2ccccc12 [1,4-diacetoxy-2-methylnaphthalene] | well soluble | – |
| CC1=CC(=O)c2ccccc2C1=O [2-methyl-1,4-naphthoquinone] | well-miscible | – |
| CC1=C(C/C=C(\C)CCC[C@H](C)CCC[C@H](C)CCCC(C)C)C(=O)c2ccccc2C1=O [2-methyl-3-phytyl-1,4-naphthoquinone] | well dissolved | – |
| C/C(=C\CC12OC1(C)C(=O)c1ccccc1C2=O)CCCC(C)CCCC(C)CCCC(C)C (centres unmarked) [Vitamin K1 oxide, 2-methyl-3-phytyl-1,4-naphthoquinone 2,3-oxide] | well-miscible | well miscible |
